In PubChem BioAssay AID1117325 (Cheminformatics & Chemogenomics Research Group (CCRG), …, 2015) one finds IC50 data, which are given here for 6 compounds.

The source made the active and inactive calls. The rule behind the calls is not given here. Where only a bound is given, the exact number is not on record here.

The test system of this test is C2C12 WNT3A-conditioned, nuclear beta-catenin. The experiment in a line: activation of β-catenin in the nucleus of C2C12, concentration-response, cell-based, Wnt-3a CM-treated, half-maximal inhibitory concentration (AID 1117325).
By IC50 is commonly meant the midpoint of a concentration-inhibition curve. For the compound `COC(=O)Nc1nc2ccc(Sc3ccccc3)cc2[nH]1`, the IC50 is 4.84 µM.

On to `NC(N)=NN=C(/C=C/c1ccc([N+](=O)[O-])o1)/C=C/c1ccc([N+](=O)[O-])o1`, for which the IC50 is > 20 µM (inactive).

Regarding `O=[N+]([O-])c1ccc(O)c2ncccc12`, the IC50 is > 20 µM (inactive).

Consider `COC(=O)Nc1nc2ccc(C(=O)c3cccs3)cc2[nH]1`, for which the IC50 was 0.235 µM.

In the case of `CC[C@@H]([C@H](C)O)n1ncn(-c2ccc(N3CCN(c4ccc(OC[C@@H]5CO[C@@](Cn6cncn6)(c6ccc(F)cc6F)C5)cc4)CC3)cc2)c1=O`, the IC50 is 5.29 µM (inactive).

In the case of `CCCCCCCCCCOCC(O)CN` (stereo unspecified), the IC50 is > 20 µM (inactive).
